# Test results published in patent publication US20090118274A1, “MONOCYCLIC AMINOPROPYL TETRAHYDRO-PYRAZOLO-PYRIDINE MODULATORS OF CATHEPSIN S” (priority 2007, published 2009).
# Target: T1, Recombinant human cathepsin S (CatS) (Homo sapiens, UniProt P25774)
# T1 construct: made in house
# Assay: Recombinant human cathepsin S (CatS) fluorogenic substrate inhibition assay
# Assay type: biochemical
# Details: not given
# Procedure: Recombinant human cathepsin S (CatS) was expressed in the baculovirus system and purified in one step with a thiopropyl-sepharose column. […] The assay is run in 150 mM sodium acetate pH 5.0 containing 1.5 mM DTT and 150 mM NaCl. […] Measurements are taken every min for 20 min. The rate is calculated from the slope of the increase in fluorescence and the percent inhibition is calculated from this.
# T1 sequence (P25774 115-331): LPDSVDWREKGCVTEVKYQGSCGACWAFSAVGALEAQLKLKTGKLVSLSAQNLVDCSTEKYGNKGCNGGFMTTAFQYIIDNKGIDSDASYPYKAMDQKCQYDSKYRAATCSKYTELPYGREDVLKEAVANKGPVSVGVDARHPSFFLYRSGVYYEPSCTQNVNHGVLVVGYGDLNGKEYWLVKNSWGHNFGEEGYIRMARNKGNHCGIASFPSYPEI
row,IC50,SMILES
1,450 nM,"CC(C)CC(=O)NCc1cc(-c2nn(CC(O)CN3CCC(N(C)C)C3)c3c2CN(S(C)(=O)=O)CC3)ccc1C(F)(F)F (stereo not drawn) [Example 249, N-(5-{1-[3-(3-Dimethylamino-pyrrolidin-1-yl)-2-hydroxy-propyl]-5-methanesulfonyl-4,5,6,7-tetrahydro-1H-pyrazolo[4,3-c]pyridin-3-yl}-2-trifluoromethyl-benzyl)-3-methyl-butyramide]"

# Same assay, conditions: average of results obtained; substrate Z-Valine-Valine-Arginine-AMC 10 μM, pH 5.0; read-out: CatS IC50
row,IC50,SMILES
1,140 nM,"CC(C)=CC(=O)NCc1cc(-c2nn(CC(O)CN3CCOCC3)c3c2CN(S(C)(=O)=O)CC3)ccc1C(F)(F)F (stereo not drawn) [Example 153, 3-Methyl-but-2-enoic acid 5-[1-(2-hydroxy-3-morpholin-4-yl-propyl)-5-methanesulfonyl-4,5,6,7-tetrahydro-1H-pyrazolo[4,3-c]pyridin-3-yl]-2-trifluoromethyl-benzylamide]"
2,170 nM,"CC(=O)NC1CCN(CC(O)Cn2nc(-c3ccc(C(F)(F)F)c(CNC(=O)c4ccc(F)cc4)c3)c3c2CCN(S(C)(=O)=O)C3)C1 (stereo not drawn) [Example 93, N-(5-{1-[3-(3-Acetylamino-pyrrolidin-1-yl)-2-hydroxy-propyl]-5-methanesulfonyl-4,5,6,7-tetrahydro-1H-pyrazolo[4,3-c]pyridin-3-yl}-2-trifluoromethyl-benzyl)-4-fluoro-benzamide]"
3,780 nM,"CS(=O)(=O)N1CCc2c(c(-c3ccc(C(F)(F)F)c(CNC(=O)c4ccc(Cl)c(Cl)c4)c3)nn2CC(O)CN2CCCC2)C1 (stereo not drawn) [Example 229, 3,4-Dichloro-N-{5-[1-(2-hydroxy-3-pyrrolidin-1-yl-propyl)-5-methanesulfonyl-4,5,6,7-tetrahydro-1H-pyrazolo[4,3-c]pyridin-3-yl]-2-trifluoromethyl-benzyl}-benzamide]"
4,250 nM,"CS(=O)(=O)N1CCc2c(c(-c3ccc(C(F)(F)F)c(CNC(=O)c4ccc(F)cc4Cl)c3)nn2CC(O)CN2CCCC2)C1 (stereo not drawn) [Example 63, 2-Chloro-4-fluoro-N-{5-[1-(2-hydroxy-3-pyrrolidin-1-yl-propyl)-5-methanesulfonyl-4,5,6,7-tetrahydro-1H-pyrazolo[4,3-c]pyridin-3-yl]-2-trifluoromethyl-benzyl}-benzamide]"
5,900 nM,"CS(=O)(=O)N1CCc2c(c(-c3ccc(C(F)(F)F)c(CNC(=O)c4ccc(F)cc4)c3)nn2CC(O)CN2CCNCC2)C1 (stereo not drawn) [Example 236, 4-Fluoro-N-{5-[1-(2-hydroxy-3-piperazin-1-yl-propyl)-5-methanesulfonyl-4,5,6,7-tetrahydro-1H-pyrazolo[4,3-c]pyridin-3-yl]-2-trifluoromethyl-benzyl}-benzamide]"
6,10 nM,"CC(=O)NC1CCN(CC(O)Cn2nc(-c3ccc(C(F)(F)F)c(CNC(=O)C=C(C)C)c3)c3c2CCN(S(C)(=O)=O)C3)CC1 (stereo not drawn) [Example 29, 3-Methyl-but-2-enoic acid 5-{1-[3-(4-acetylamino-piperidin-1-yl)-2-hydroxy-propyl]-5-methanesulfonyl-4,5,6,7-tetrahydro-1H-pyrazolo[4,3-c]pyridin-3-yl}-2-trifluoromethyl-benzylamide]"
7,370 nM,"CS(=O)(=O)N1CCc2c(c(-c3ccc(C(F)(F)F)c(CNC(=O)c4ccc5ccccc5c4)c3)nn2CC(O)CN2CCCC2)C1 (stereo not drawn) [Example 64, Naphthalene-2-carboxylic acid 5-[1-(2-hydroxy-3-pyrrolidin-1-yl-propyl)-5-methanesulfonyl-4,5,6,7-tetrahydro-1H-pyrazolo[4,3-c]pyridin-3-yl]-2-trifluoromethyl-benzylamide]"
8,670 nM,"C/N=c1/ccccn1CC(O)Cn1nc(-c2ccc(Cl)c(CNC(=O)c3ccc(F)cc3)c2)c2c1CCN(S(C)(=O)=O)C2 (stereo not drawn) [Example 221, N-(2-Chloro-5-{1-[2-hydroxy-3-(2-methylimino-2H-pyridin-1-yl)-propyl]-5-methanesulfonyl-4,5,6,7-tetrahydro-1H-pyrazolo[4,3-c]pyridin-3-yl}-benzyl)-4-fluoro-benzamide]"
